Experimental data reported in PMC12116161, “An Elastase Inhibitor ShSPI from Centipede Attenuates Bleomycin-Induced Pulmonary Fibrosis” (Toxins, 2025).
Entries after “also recorded” stand apart in the source; their conditions may differ. Where a SMILES comes first, the peptide text is derived from it. Bridges are numbered along the chain shown (N, C = ends).

Test: Pharmacokinetic study of ShSPI (plasma, LC-MS/MS)
Assay type: in vivo, mice
Set-up: CI/F: unit not given here
Description: Each plasma sample was analyzed by LC-MS/MS, and the raw data were processed by DAS pharmacokinetic v2.1.1 software to obtain pharmacokinetic parameters (Table 3) and blood concentration–time curves (Figure 5).
Grouping and Sampling: SIPF grade Sprague Dawley (SD) healthy rats (male, procured from Hunan Slaughter King Laboratory Animal Co.) were randomly divided into three groups, with three rats in each group. All groups received a single administration of the ShSPI and were fasted for 12 h prior to dosing. The groups included two inhalation groups (1 mg/kg and 2 mg/kg) and an intravenous tail vein injection group (1 mg/kg). Blood samples were collected from the subclavian vein at 5 min, 15 min, 30 min, 1 h, 2 h, 4 h, 8 h, and 24 h post-dosing. A 0.2 mL blood sample was transferred into pre-labeled EDTA-2K anticoagulant tubes and gently inverted to ensure thorough mixing of the anticoagulant with the blood. Samples were immediately placed on ice. Plasma was separated within 1 h by centrifugation at 6800 rpm for 5 min at 4 °C. The supernatant was collected and stored at −20 °C until analysis.
Sample Preparation Before Analysis: Sample preparation was conducted under yellow light in an ice-water bath. For each analysis, 30 μL of standard or experimental sample was mixed with 200 μL of working solution, while blank samples were prepared with an equivalent volume of methanol. The mixture was vortexed thoroughly and centrifuged at 5500 rpm for 10 min. A 150 μL aliquot of the supernatant was mixed with 150 μL of ultrapure water, and the final mixture was subjected to analysis.
Chromatographic and Mass Spectrometry Conditions: Chromatographic separation was performed using an AQ C18 column (2.1 × 50 mm, 5.0 μm). The injection volume was 10 μL. The mobile phase consisted of 0.1% formic acid in water (A) and methanol (B), with the following gradient program: 10% B at 0–0.01 min, 98% B at 0.01–1.8 min, 98% B at 1.8–2.5 min, and 10% B at 2.5–3.0 min. The flow rate was set at 0.6 mL/min. Mass spectrometry analysis was performed using an electrospray ionization (ESI) source in multiple reaction monitoring (MRM) mode.

[1] = male, Sprague Dawley, inhaled or intranasal, 1 mg/kg ShSPI, single inhalation, plasma, LC-MS/MS, DAS software, mean ± s, n = 3, method SD rats
[2] = male, Sprague Dawley, inhaled or intranasal, 2 mg/kg ShSPI, single inhalation, plasma, LC-MS/MS, DAS software, mean ± s, n = 3, method SD rats

In the case of `CC[C@H](C)[C@@H]1NC(=O)[C@H](C)NC(=O)[C@@H]2CCCN2C(=O)[C@@H]2CSSC[C@H](NC(=O)[C@H](CO)NC(=O)[C@H](CC(N)=O)NC(=O)[C@H](CO)NC(=O)[C@H](Cc3ccc(O)cc3)NC(=O)[C@H](CCSC)NC(=O)[C@H](CCCNC(=N)N)NC(=O)CNC(=O)[C@H](Cc3ccccc3)NC(=O)[C@H](CCC(=O)O)NC(=O)[C@H](CC(=O)O)NC(=O)[C@H](Cc3ccccc3)NC(=O)[C@H](C(C)C)NC(=O)[C@@H]3CCCN3C(=O)[C@H](CCC(N)=O)NC(=O)[C@H](Cc3ccc(O)cc3)NC1=O)C(=O)N[C@@H](CCC(=O)O)C(=O)N[C@@H](CCSC)C(=O)N[C@@H](CCC(N)=O)C(=O)N[C@@H](CCCNC(=N)N)C(=O)N[C@@H](C)C(=O)N[C@@H](CCCNC(=N)N)C(=O)N[C@H](C(=O)N[C@@H](CC(C)C)C(=O)N[C@@H](CCCNC(=N)N)C(=O)NCC(=O)O)CSSC[C@H](N)C(=O)N1CCC[C@H]1C(=O)N[C@@H](CCC(N)=O)C(=O)N[C@@H](C(C)C)C(=O)N2` [ShSPI] (H-CPQVCPAIYQPVFDEFGRMYSNSCEMQRARCLRG-OH; disulfide 1-31, 5-24; N-terminus and C-terminus assumed), the CI/F (2 mg/kg ShSPI, single inhalation, plasma, LC-MS/MS, DAS software, mean ± s, n = 3, table says mice, method SD rats) is reported as 29.00 ± 11.90, the “detectability in vivo (plasma) at 8 h post-administration” value (inhalation, doses of 1 mg/kg and 2 mg/kg, 8 h post-administration, LC-MS/MS) is reported as “detected; also recorded: detectable” and the “detectability in vivo (plasma) at 24 h post-administration” value (inhalation, doses of 1 mg/kg and 2 mg/kg, 24 h post-administration, LC-MS/MS) is reported as “no longer detectable”. For the same compound, the AUC(0-t) [1] was 580 ± 294 ng·h/mL, the Cmax [1] was 188 ± 64.4 ng/mL and the MRT [1] was 2.86 ± 0.725 h. The Tmax (male, Sprague Dawley, inhaled or intranasal, 1 mg/kg ShSPI, single inhalation, plasma, LC-MS/MS, DAS software, n = 3, method SD rats) was 1 h, the AUC(0-inf) [2] was 1260 ± 422 ng·h/mL and the AUC(0-t) [2] was 1170 ± 415 ng·h/mL. For the same compound, the Cmax [2] was 347 ± 151 ng/mL, the MRT [2] was 3.1 ± 0.898 h and the half-life [2] was 2.14 ± 0.663 h. For the same compound, the Tmax (male, Sprague Dawley, inhaled or intranasal, 2 mg/kg ShSPI, single inhalation, plasma, LC-MS/MS, DAS software, n = 3, method SD rats) was 1 h and the “overall metabolism in mice” value (overall assessment in words) was “moderate”.
